Measured values: PMC4506051, “Pharmacokinetic Profiles of Active Ingredients and Its Metabolites Derived from Rikkunshito, a Ghrelin Enhancer, in Healthy Japanese Volunteers: A Cross-Over, Randomized Study” (PLoS ONE, 2015)
Read-outs that look alike come from different tables or passages of the source.

How the values were obtained:
[1] = Dose proportionality (linearity) test by power model for C max and AUC0-last; details: rikkunshito 2.5, 5.0 or 7.5 g
Method: The dose proportionality was analyzed via a power model [21, 22]. […] Evaluation of linearity of the dosage-exposure relationship was conducted with Phoenix WinNonlin and SAS 9.2 (SAS Institute, Inc., Cary, NC).

[2] = Randomized crossover quantitative trial: plasma pharmacokinetics of nine ingredients after rikkunshito 2.5, 5.0 or 7.5 g; details: for Tmax / AUC(0-t) / Cmax / half-life: human, plasma; for AUC(0-t): AUC0-last; for Cmax: C max
Description: The first trial was a nonrandomized, open-label, one-period design. The second trial was a randomized, open-label, three-arm, three-period design (Fig 1). With respect to inclusion criteria, the studies included healthy Japanese adults between 20 and 45 years of age with a body mass index between 18 and 25 who were willing and able to comply with the study requirements. Exclusion criteria for this study included a history of significant liver, heart, or vessel disease and consumption of supplements that contained any rikkunshito ingredients or any drug within 3 days to 1 week before the first dose. Other standard exclusion criteria included relevant allergies, pregnant or nursing females, and any alcohol or nicotine use. The sample size was set as more than 15 based on the Ministry of Health, Labour and Welfare’s guidelines. Subjects allocated to a screening test were randomized to one of three groups by the central allocation system (allocation ratio 1:1:1). A random sequence was generated using a computer. The safety endpoint was evaluated in all volunteers. This endpoint was defined on the basis of a physician’s judgement after examination or observation that a serious adverse event had occurred. Adverse events included death, a life-threatening event, an event requiring hospitalization for treatment or an extended stay in hospital, an event resulting in permanent or temporary disability or dysfunction, an event resulting in a congenital abnormality, or any other serious medical phenomenon. With respect to side effects, no specific conditions were defined, and all adverse events for which no causal relationship with the drug could be excluded were deemed to be side effects. In each stage during the 48-h period following rikkunshito administration, the physician monitored the patient for subjective symptoms, objective findings, swelling, body temperature (axillary), blood pressure (sitting), and pulse (sitting). The physician also conducted a hematological examination to measure the patient’s red blood cell, leucocyte and platelet counts, hemoglobin level, and hematocrit value. A biochemical examination was conducted to determine total protein, blood urea nitrogen, creatinine, uric acid, aspartate aminotransferase, alanine aminotransferase, total bilirubin, alkaline phosphatase, γ-glutamyltranspeptidase albumin, prothrombin time, total cholesterol, C-reactive protein, and potassium to identify any abnormalities in comparison with the subject’s condition prior to administration. All participants fasted for 12 h before administration and 4 h after administration of the study drug.
In the second quantitative trial, 12-mL blood samples were collected at 0 (preadministration), 0.25, 0.5, 1, 2, 3, 4, 6, 8, 10, 12, 24, and 48 h after a single oral administration of rikkunshito (Lot H05142). A total of 3 daily doses were used in this trial, i.e., the clinical dose per administration (2.5 g) as the lowest dose, the clinical daily dose (7.5 g) as the highest dose, and an intermediate dose (5.0 g), to broadly discuss the pharmacokinetic characteristics of the ingredients measured. The trial participants were hospitalized overnight on the day they ingested rikkunshito, and returned home the following day after blood samples were collected at the 24-h time point. The participants returned to the hospital to provide blood samples at 48 h. The blood was immediately centrifuged at 1700 ×g for 15 min to obtain plasma. Plasma fractions were stored at −20°C or lower until analysis.
Plasma, urine, and rikkunshito formulation samples were analyzed for rikkunshito ingredients concentrations using a liquid chromatography–mass spectrometry with tandem mass spectrometer assay (LC–MS/MS; API5000, Triple Quad 6500, or QTRAP5500; AB Sciex, Tokyo, Japan) or gas chromatography–mass spectrometry. Further information of analytical methods can be found at S1 Appendix.

[3] = Method validation: long-term stability in plasma
[4] = Method validation: short-term stability in plasma
[5] = protocol rationale for final sampling time; cited from earlier work
[6] = Method validation: stability in blood
[7] = Method validation: post-preparative stability (autosampler)
[8] = Method validation: freeze-thaw stability in plasma; details: deep freezer (−30°C to −10°C), after 3 cycles of freeze-thaw
[9] = Stability of ingredients in gastric pH solution (pH 1.2, 37°C); format: physicochemical; details: pH 1.2
Method: Rikkunshito gradually dissolved in acidic solution (pH 1.2) at 37°C, and the concentration of atractylodin after adding 0.25, 0.5, 1, and 2 h was measured by gas chromatography–mass spectrometry.

[10] = po, 2.5 g, rikkunshito 2.5 g single oral, n = 21, geometric mean (95% CI)
[11] = po, 2.5 g, Median t max (range), rikkunshito 2.5 g single oral, n = 21, median (minimum–maximum)
[12] = po, 5 g, rikkunshito 5.0 g single oral, n = 19, geometric mean (95% CI)
[13] = po, 5 g, Median t max (range), rikkunshito 5.0 g single oral, n = 19, median (minimum–maximum)
[14] = po, 5 g, t 1/2, rikkunshito 5.0 g single oral, n = 19, geometric mean (95% CI)
[15] = po, 7.5 g, rikkunshito 7.5 g single oral, n = 19, geometric mean (95% CI)
[16] = rikkunshito 7.5 g single oral, n = 19, geometric mean (95% CI)
[17] = rikkunshito 7.5 g single oral, n = 19, median (minimum–maximum)

Structure (SMILES): CC1(C)[C@@H](O)CC[C@]2(C)[C@H]3C(=O)C=C4[C@@H]5C[C@@](C)(C(=O)O)CC[C@]5(C)CC[C@@]4(C)[C@]3(C)CC[C@@H]12 [18β-Glycyrrhetinic acid]
- Dose proportionality test using power model, β ([1]; AUC0-last): 0.979
- Dose proportionality test using power model, β ([1]; Cmax): 0.819
- Tmax ([2]; oral, t max, after rikkunshito administration, dose not given): 8 h
- AUC(0-t) [2, 10]: 292 ng·h/mL
- Cmax [2, 10]: 23 ng/mL
- Tmax [2, 11]: 8 h
- AUC(0-t) [2, 12]: 638 ng·h/mL
- Cmax [2, 12]: 44.2 ng/mL
- Tmax [2, 13]: 8 h
- half-life [2, 14]: 8.94 h
- AUC(0-t) [2, 15]: 832 ng·h/mL
- Cmax [2, 15]: 55.6 ng/mL
- half-life ([2]; po, 7.5 g, t 1/2, rikkunshito 7.5 g single oral, n = 19, geometric mean (95% CI)): > 10 h
- t 1/2 [2, 16]: 11.7 (8.90–15.3) h
- Median t max (range) [2, 17]: 8.00 (5.98–23.7) h
- Median t max (range) ([2]; rikkunshito 7.5 g single oral, n = 19, median (minimum–maximum), listed as 18β-glycyrrhetinic acid): exceeding 3 h
- Long-term stability, RR ([3]; 1600 pg/mL, freezer (−30°C to −10°C) for 13 days): 102.6%
- Long-term stability, RR ([3]; 1600 pg/mL, freezer (−30°C to −10°C) for 39 days): 108.3%
- Long-term stability, RR ([3]; 1600 pg/mL, freezer (−30°C to −10°C) for 228 days): 113.5%
- Long-term stability, RR ([3]; 64000 pg/mL, freezer (−30°C to −10°C) for 13 days): 113.1%
- Long-term stability, RR ([3]; 64000 pg/mL, freezer (−30°C to −10°C) for 39 days): 104.4%
- Long-term stability, RR ([3]; 64000 pg/mL, freezer (−30°C to −10°C) for 228 days): 109.2%
- Short-term stability, RR ([4]; 1600 pg/mL, at room temperature for 4 h): 89.0%
- Short-term stability, RR ([4]; 1600 pg/mL, at room temperature for 25 h): 90.2%
- Short-term stability, RR ([4]; 64000 pg/mL, at room temperature for 4 h): 98.9%
- Short-term stability, RR ([4]; 64000 pg/mL, at room temperature for 25 h): 105.0%
- half-life [5]: approximately 10 h
- Stability in blood, RR ([6]; 1600 pg/mL, at room temperature for 2 h): 104.2%
- Stability in blood, RR ([6]; 1600 pg/mL, on ice for 2 h): 108.8%
- Stability in blood, RR ([6]; 64000 pg/mL, at room temperature for 2 h): 98.2%
- Stability in blood, RR ([6]; 64000 pg/mL, on ice for 2 h): 99.1%
- Post-preparative stability, RR ([7]; 1600 pg/mL, autosampler set at 4°C for 24 h): 106.0%
- Post-preparative stability, RR ([7]; 1600 pg/mL, autosampler set at 4°C for 48 h): 110.8%
- Post-preparative stability, RR ([7]; 64000 pg/mL, autosampler set at 4°C for 24 h): 104.9%
- Post-preparative stability, RR ([7]; 64000 pg/mL, autosampler set at 4°C for 48 h): 111.4%

Structure (SMILES): O=C(/C=C/c1ccc(O)cc1)c1ccc(O)cc1O [Isoliquiritigenin]
- Dose proportionality test using power model, β ([1]; AUC0-last): 1.27
- Dose proportionality test using power model, β ([1]; Cmax): 0.692
- AUC(0-t) [2, 10]: 0.0307 ng·h/mL
- Cmax [2, 10]: 0.0205 ng/mL
- Tmax [2, 11]: 0.25 h
- AUC(0-t) [2, 12]: 0.0766 ng·h/mL
- Cmax [2, 12]: 0.0321 ng/mL
- Tmax [2, 13]: 0.25 h
- half-life [2, 14]: 4.12 h
- AUC(0-t) [2, 15]: 0.122 ng·h/mL
- Cmax [2, 15]: ~0.0428 ng/mL
- C max [2, 16]: 42.8 (30.4–60.3) pg/mL
- t 1/2 [2, 16]: 3.26 (1.69–6.31) h
- t 1/2 ([2]; rikkunshito 7.5 g single oral, n = 19, geometric mean (95% CI), listed as isoliquiritigenin): < 10 h
- Median t max (range) [2, 17]: 0.250 (0.250–4.00) h
- Median t max (range) ([2]; rikkunshito 7.5 g single oral, n = 19, median (minimum–maximum), listed as isoliquiritigenin): ≤ 1 h
- Freeze-thaw stability, RR ([8]; 4 pg/mL): 95.3%
- Freeze-thaw stability, RR ([8]; 160 pg/mL): 88.3%
- Long-term stability, RR ([3]; 4 pg/mL, freezer (−30°C to −10°C) for 22 days): 99.0%
- Long-term stability, RR ([3]; 4 pg/mL, freezer (−30°C to −10°C) for 31 days): 105.0%
- Long-term stability, RR ([3]; 4 pg/mL, freezer (−30°C to −10°C) for 220 days): 102.8%
- Long-term stability, RR ([3]; 160 pg/mL, freezer (−30°C to −10°C) for 22 days): 95.0%
- Long-term stability, RR ([3]; 160 pg/mL, freezer (−30°C to −10°C) for 31 days): 87.7%
- Long-term stability, RR ([3]; 160 pg/mL, freezer (−30°C to −10°C) for 220 days): 85.5%
- Short-term stability, RR ([4]; 4 pg/mL, at room temperature for 4 h): 97.0%
- Short-term stability, RR ([4]; 4 pg/mL, at room temperature for 24 h): 96.5%
- Short-term stability, RR ([4]; 160 pg/mL, at room temperature for 4 h): 85.2%
- Short-term stability, RR ([4]; 160 pg/mL, at room temperature for 24 h): 101.2%
- Stability in gastric pH solution, Quantitative value ([9]; 0.5 h): 15.2 ng/mL
- Stability in gastric pH solution, Quantitative value ([9]; 1 h): 15.5 ng/mL
- Stability in gastric pH solution, Quantitative value ([9]; 2 h): 15.2 ng/mL
- Stability in blood, RR ([6]; 4 pg/mL, at room temperature for 2 h): 81.0%
- Stability in blood, RR ([6]; 4 pg/mL, on ice for 2 h): 103.0%
- Stability in blood, RR ([6]; 160 pg/mL, at room temperature for 2 h): 46.8%
- Stability in blood, RR ([6]; 160 pg/mL, on ice for 2 h): 90.2%
- Post-preparative stability, RR ([7]; 4 pg/mL, autosampler set at 4°C for 25 h): 110.0%
- Post-preparative stability, RR ([7]; 4 pg/mL, autosampler set at 4°C for 48 h): 88.0%
- Post-preparative stability, RR ([7]; 160 pg/mL, autosampler set at 4°C for 25 h): 115.2%
- Post-preparative stability, RR ([7]; 160 pg/mL, autosampler set at 4°C for 48 h): 93.8%
